Reference: patent US20160297763A1, “Heteroaryl hydroxamic acid derivatives and their use in the treatment, amelioration or prevention of a viral disease” (priority 2011, published 2016)

Test system: influenza A virus A/Aichi/2/68 (H3N2)
Test: Cytopathic effect (CPE) assay H3N2
Format: cell-based, influenza A virus (H3N2) on MDCK cells
Conditions: Influenza A virus, H3N2, activity conc 1 (μM per method); read-out: CPE H3N2 reduction (%)
Protocol: A possible measure of the […] antiviral activity of the compounds having the formula I or II is the CPE assay disclosed herein. […] In this connection, the reduction in the virus-mediated cytopathic effect (CPE) upon treatment with the compounds was calculated as follows: The cell viability of infected-treated and uninfected-treated cells was determined using an ATP-based cell viability assay (Promega). The response in relative luminescent units (RLU) of infected-untreated samples was subtracted from the response (RLU) of the infected-treated samples and then normalized to the viability of the corresponding uninfected sample resulting in % CPE reduction.
The influenza A virus (IAV) was obtained from American Tissue Culture Collection (A/Aichi/2/68 (H3N2); VR-547). Virus stocks were prepared by propagation of virus on Mardin-Darby canine kidney (MDCK; ATCC CCL-34) cells and infectious titres of virus stocks were determined by the 50% tissue culture infective dose (TCID50) analysis as described in Reed, L. J., and H. Muench. 1938, Am. J. Hyg. 27:493-497.
MDCK cells were seeded in 96-well plates at 2×10^4 cells/well using DMEM/Ham's F-12 (1:1) medium containing 10% foetal bovine serum (FBS), 2 mM L-glutamine and 1 antibiotics (all from PAA). Until infection the cells were incubated for 5 hrs at 37° C., 5.0 CO2 to form a ˜80% confluent monolayer on the bottom of the well. Each test compound was dissolved in DMSO and generally tested at 25 μM and 250 μM. In those cases where the compounds were not soluble at that concentration they were tested at the highest soluble concentration. The compounds were diluted in infection medium (DMEM/Ham's F-12 (1:1) containing 5 μg/ml trypsin, and 1% antibiotics) for a final plate well DMSO concentration of 1%. The virus stock was diluted in infection medium (DMEM/Ham's F-12 (1:1) containing 5 μg/ml Trypsin, 1% DMSO, and 1% antibiotics) to a theoretical multiplicity of infection (MOI) of 0.05.
After removal of the culture medium and one washing step with PBS, virus and compound were added together to the cells. In the wells used for cytotoxicity determination (i.e. in the absence of viral infection), no virus suspension was added. Instead, infection medium was added. Each treatment was conducted in two replicates. After incubation at 37° C., 5% CO2 for 48 hrs, each well was observed microscopically for apparent cytotoxicity, precipitate formation, or other notable abnormalities. Then, cell viability was determined using CellTiter-Glo luminescent cell viability assay (Promega). The supernatant was removed carefully and 65 μl of the reconstituted reagent were added to each well and incubated with gentle shaking for 15 min at room temperature. Then, 60 μl of the solution was transferred to an opaque plate and luminescence (RLU) was measured using Synergy HT plate reader (Biotek).
Relative cell viability values of uninfected-treated versus uninfected-untreated cells were used to evaluate cytotoxicity of the compounds. Substances with a relative viability below 80% at the tested concentration were regarded as cytotoxic and retested at lower concentrations.
Reduction in the virus-mediated cytopathic effect (CPE) upon treatment with the compounds was calculated as follows: The response (RLU) of infected-untreated samples was subtracted from the response (RLU) of the infected-treated samples and then normalized to the viability of the corresponding uninfected sample resulting in % CPE reduction.

For CCONC(=O)c1cc(NCCCc2cccc(Cl)c2)ccn1 [drawing 168], the inhibition at 1 µM was -0.3%.

Same assay, conditions: Influenza A virus, H3N2, activity conc 2 (μM per method); read-out: CPE H3N2 reduction (%)

First: CC(C)c1cccc(-c2ccc(C(=O)NO)nc2)c1 [drawing 205]
Second: CC(C)c1cccc(-c2ccc(C(=O)N(O)CCc3ccccc3)nc2)c1 [drawing 207]
The inhibition at 2 µM of the first is lower: -2.1% for the first, 2.1% for the second.

Going from O=C(NOCc1ccccc1)c1ccc(-c2ccccc2)cn1 [drawing 172] to O=C(c1cc(-c2ccc(Cl)cc2)ccn1)N(O)Cc1ccccc1 [drawing 219], the inhibition at 2 µM falls from -4% to -6.7%.

O=C(c1cc2ccccc2cn1)N(O)CCCc1ccccc1 was tested, and the inhibition at 2 µM was 4.4%.

Same assay, conditions: Influenza A virus, H3N2, activity conc 5 (μM per method); read-out: CPE H3N2 reduction (%)

First: O=C(c1cc(C2CCCCC2)ccn1)N(O)Cc1ccccc1 [drawing 258]
Second: O=C(c1cc(N2CCCCC2)cc[n+]1[O-])N(O)Cc1ccccc1
The inhibition at 5 µM of the first is higher: -0.5% for the first, -1.83% for the second.

First: CN(c1ccnc(C(=O)NO)c1)S(=O)(=O)Cc1ccccc1
Second: CN(Cc1ccccc1)c1ccnc(C(=O)N(O)Cc2ccccc2)c1
The inhibition at 5 µM of the first is lower: -1.7% for the first, 3.8% for the second.

Compared with O=C(c1cc(-c2cccc(CO)c2)ccn1)N(O)Cc1ccccc1 [drawing 240], O=C(c1cc(-c2ccc(Cl)c(Cl)c2)ccn1)N(O)Cc1ccccc1 [drawing 220] is higher in inhibition at 5 µM: 7.7% for the first, 8.1% for the second.

Going from CCONC(=O)c1ccc(-c2ccccc2)cn1 [drawing 173] to O=C(NOCc1ccccc1)c1cc2ccccc2cn1 [drawing 182], the inhibition at 5 µM rises from -3% to -1.5%.

Compared with O=C(c1ccc(N2CCCC2)cn1)N(Cc1ccccc1)OCc1ccccc1 [drawing 178], O=C(NOCc1ccccc1)c1cc(N2CCCCC2)ccn1 [drawing 187] is higher in inhibition at 5 µM: -2.7% for the first, 1% for the second.

Going from CN(C)S(=O)(=O)c1cccc(-c2ccnc(C(=O)N(O)Cc3ccccc3)c2)c1 [drawing 233] to NC(=O)c1ccc(-c2ccnc(C(=O)N(O)Cc3ccccc3)c2)cc1 [drawing 232], the inhibition at 5 µM falls from -1.8% to -2.5%.

First: O=C(NO)c1cc(N2CCCCC2)ccn1
Second: CC(C)(C)OC(=O)N1CC=C(c2ccnc(C(=O)N(O)Cc3ccccc3)c2)CC1 [drawing 229]
The inhibition at 5 µM of the first is lower: -4.1% for the first, 1.2% for the second.

Cc1c(-c2ccccc2)sc2nc(NCCN)[nH]c(=O)c12 [SAV-7588] was tested, and the inhibition at 5 µM was 2.2%.

Same assay, conditions: Influenza A virus, H3N2, activity conc 10 (μM per method); read-out: CPE H3N2 reduction (%)

Compared with Cc1cccc(-c2ccc(C(=O)N(O)Cc3ccccc3)nc2)c1 [drawing 181], O=C(c1cc(-c2ccccc2)ccn1)N(O)Cc1ccccc1 [drawing 211] is lower in inhibition at 10 µM: 15.5% for the first, -9.3% for the second.

Same assay, conditions: Influenza A virus, H3N2, activity conc 12 (μM per method); read-out: CPE H3N2 reduction (%)

Compound O=C(NO)c1ccc(-c2ccccc2)cn1 [drawing 216] has an inhibition at 12 µM of 21.7%.

Same assay, conditions: Influenza A virus, H3N2, activity conc 20 (μM per method); read-out: CPE H3N2 reduction (%)

Compared with O=C(NOCc1ccccc1)c1ccc(N2CCCC2)cn1 [drawing 177], CCONC(=O)c1ccc(-c2cccc(CN(C)CCCc3ccccc3)c2)cn1 is higher in inhibition at 20 µM: -8.7% for the first, 1.6% for the second.

In the case of O=C(NO)c1cc(NS(=O)(=O)Cc2cc(Cl)cc(Cl)c2)ccn1, the inhibition at 20 µM is reported as 28.9%.

Same assay, conditions: Influenza A virus, H3N2, activity conc 25 (μM per method); read-out: CPE H3N2 reduction (%)

In the case of O=C(c1ccc(N2CCCC2)cn1)N(O)Cc1ccccc1 [drawing 180], the inhibition at 25 µM is reported as 1%.

Same assay, conditions: Influenza A virus, H3N2, activity conc 50 (μM per method); read-out: CPE H3N2 reduction (%)

Compared with O=C(c1cc(N2CCCC(F)(F)C2)ccn1)N(O)Cc1ccccc1 [drawing 224], O=C(c1cc(N2CCC(F)(F)CC2)ccn1)N(O)Cc1ccccc1 is lower in inhibition at 50 µM: 8.9% for the first, -3.2% for the second.

Going from Cc1cccc(C(=O)NOCc2ccccc2)n1 [drawing 170] to Cc1cccc(C(=O)N(C)OCc2ccccc2)n1, the inhibition at 50 µM rises from -2.7% to -2.3%.

Compared with CN(OCc1ccccc1)C(=O)c1cc2ccccc2cn1 [drawing 184], O=C(c1cc2ccccc2cn1)N(O)Cc1ccccc1 [drawing 200] is higher in inhibition at 50 µM: 0.6% for the first, 34.2% for the second.

First: O=C(NO)c1cc(N2CCOCC2)ccn1 [drawing 212]
Second: O=C(NO)c1ccc(N2CCCC2)cn1 [drawing 204]
The inhibition at 50 µM of the first is lower: -7.1% for the first, -4.3% for the second.

First: O=C(NO)c1cc(NS(=O)(=O)Cc2ccc(Cl)cc2)ccn1
Second: O=C(NO)c1cc(NS(=O)(=O)Cc2ccccc2)ccn1
The inhibition at 50 µM of the first is lower: -3.98% for the first, 5.1% for the second.

Going from O=C(c1cc(C2CCCNC2)ccn1)N(O)Cc1ccccc1 (stereo not drawn) to O=C(c1cc(C2CCNCC2)ccn1)N(O)Cc1ccccc1, the inhibition at 50 µM falls from 6.1% to -1.4%.

Compared with O=C(NO)c1cc2ccccc2cn1 [drawing 201], CN(O)C(=O)c1cc2ccccc2cn1 [drawing 199] is lower in inhibition at 50 µM: 94.3% for the first, -0.6% for the second.

Compared with O=C(c1cc(C2=CCNCC2)ccn1)N(O)Cc1ccccc1, O=C(c1cc(C2=CCCNC2)ccn1)N(O)Cc1ccccc1 is higher in inhibition at 50 µM: 0.4% for the first, 9.5% for the second.

Going from N/C(=N\O)c1ccc(C(=O)NO)nc1 to O=C(NO)c1cc(NS(=O)(=O)Cc2ccccc2Cl)ccn1, the inhibition at 50 µM rises from -4.8% to 1.5%.

First: O=C(c1cc(NS(=O)(=O)Cc2ccccc2)ccn1)N(O)Cc1ccccc1 [drawing 209]
Second: O=C(c1cc(NS(=O)(=O)Cc2cccc(F)c2)ccn1)N(O)Cc1ccccc1
The inhibition at 50 µM of the first is lower: 6.2% for the first, 9.6% for the second.

Going from CON(C)C(=O)c1cccc(C(=O)N(C)OC)n1 to CON(C)C(=O)c1cccc(C)n1, the inhibition at 50 µM falls from -0.3% to -0.9%.

Compared with O=C(c1cc(N2CCNCC2)ccn1)N(O)Cc1ccccc1, NC1CCN(c2ccnc(C(=O)N(O)Cc3ccccc3)c2)CC1 is higher in inhibition at 50 µM: -4.5% for the first, 3.2% for the second.

Going from CON(C)C(=O)c1ccc2ccccc2n1 to CCONC(=O)c1ccc2ccccc2n1, the inhibition at 50 µM falls from -1.2% to -2.2%.

Going from CCONC(=O)c1cccc(C)n1 to O=C(NO)c1cc(NS(=O)(=O)Cc2cccc(F)c2)ccn1, the inhibition at 50 µM falls from -2.1% to -2.4%.

First: CN1CC=C(c2ccnc(C(=O)N(O)Cc3ccccc3)c2)CC1 [drawing 260]
Second: O=C(c1cc(C2=CCC3(CC2)OCCO3)ccn1)N(O)Cc1ccccc1
The inhibition at 50 µM of the first is higher: 10.6% for the first, 5.4% for the second.

Compared with O=C(c1cc(N2CCC(F)CC2)ccn1)N(O)Cc1ccccc1, CN1CCN(c2ccnc(C(=O)N(O)Cc3ccccc3)c2)CC1 is lower in inhibition at 50 µM: 34% for the first, 2.4% for the second.

First: O=C(c1cc(NS(=O)(=O)Cc2ccc(F)cc2)ccn1)N(O)Cc1ccccc1
Second: O=C(c1cc(NS(=O)(=O)Cc2cccc(Cl)c2)ccn1)N(O)Cc1ccccc1
The inhibition at 50 µM of the first is lower: -1.1% for the first, 9.5% for the second.

Compared with CC1(C)C=C(c2ccnc(C(=O)N(O)Cc3ccccc3)c2)CC(C)(C)N1, CN(C)C(=O)c1cccc(-c2ccnc(C(=O)N(O)Cc3ccccc3)c2)c1 is higher in inhibition at 50 µM: 2.8% for the first, 5.3% for the second.

Going from O=C(c1cc(N2CCC3(CC2)OCCO3)ccn1)N(O)Cc1ccccc1 [drawing 235] to CC(C)(C)OC(=O)NC1CCN(c2ccnc(C(=O)N(O)Cc3ccccc3)c2)CC1 [drawing 227], the inhibition at 50 µM falls from 9.5% to 8.3%.

Compound CN(O)C(=O)c1cc(N2CCCCC2)ccn1 has an inhibition at 50 µM of -0.9%.

Same assay, conditions: Influenza A virus, H3N2, read-out: CPE H3N2 IC50 [μM]

For Cc1cc(-c2sc3nc(N)[nH]c(=O)c3c2C)ccc1Cl [SAV-7620], the IC50 was 29 µM.

Same assay, conditions: Influenza A virus, H3N2, read-out: CPE H3N2 reduction (%), activity conc 5 (μM per method)

Compared with Cc1c(-c2ccccc2)sc2nc(Nc3ccccc3)[nH]c(=O)c12 [SAV-7638], Cc1c(-c2ccc(Cl)c(C(F)(F)F)c2)sc2nc(N)[nH]c(=O)c12 [SAV-7623] is lower in inhibition at 5 µM: 8.7% for the first, 1.9% for the second.

Same assay, conditions: Influenza A virus, H3N2, read-out: CPE H3N2 reduction (%), activity conc 50 (μM per method)

Cc1cc(-c2sc3nc(N)[nH]c(=O)c3c2C)ccc1Cl [SAV-7620] showed an inhibition at 50 µM of 57.8%.

Same assay, conditions: Influenza A virus, H3N2; read-out: CPE H3N2 IC50

O=C(NO)c1cc2ccccc2cn1 [drawing 201] was tested, and the IC50 was 45 µM.

Same assay, conditions: activity conc 5 (μM per method)

O=C(c1cc(N2CCCCC2)ccn1)N(O)Cc1ccccc1 [drawing 197] was tested, and the “CPE H3N2 reduction (%)” value was 1.1%.

Same assay, conditions: activity conc 50 (μM per method)

Compared with Cl.O=C(c1cc(N2CCOCC2)ccn1)N(O)Cc1ccccc1 [drawing 242], Cl.O=C(NO)c1cc(NS(=O)(=O)Cc2cc(Cl)cc(Cl)c2)ccn1 [drawing 276] is higher in “CPE H3N2 reduction (%)” value: 6.3% for the first, 9.3% for the second.
